Results taken from patent US4191808A, “Method of measuring dipeptidyl-amino-peptidase activity” (Ajinomoto Co., Inc., priority 1975, dated 1980).
Values belong to the compound of their own block, whether it stands above or below them. Peptide text beside a SMILES is read from it. * marks the point of attachment. pNA = O=[N+]([O-])c1ccc(N*)cc1

Tests used:
human serum = experiment: Paper chromatography of products after incubation with human serum; assay type: biochemical; conditions: incubation 30 minutes
Description: The products obtained after incubating various X-L-proline p-nitroanilides with purified human submaxillary enzyme or human serum for 30 minutes as in Example 22 were examined by paper chromatography, the residues of glycine, L-alanine, L-glutamic acid, L-aspartic acid, L-lysine and L-argine being used as the N-terminal amino acids (X).
When the rate of hydrolysis of L-proline p-nitroanilide by human serum was examined, it was observed only 0.7% of hydrolysis of glycyl-L-proline p-nitroanilide.

[1] = test system: purified human submaxillary enzyme (X-prolyl dipeptidyl-aminopeptidase); experiment: Direct photometric assay of substrate hydrolysis with purified human submaxillary enzyme; assay type: biochemical
Description: (§1) 3mM substrate solutions were prepared as in Example 22, various dipeptide derivatives or salts thereof being used as substrates. The relative enzyme activities toward various substrates, and the rates and optimum pHs of hydrolysis of various substrates with the enzyme were measured as in Example 22.
^a Activities were measured in 0.15 M Trismaleate buffer at pH 5.6-8.
and in 0.15 M glycineNaOH buffer at pH 8.2-9.4, purified human
submaxillary enzyme being used. For Lalanyl-L-proline pnitroanilide,
amidiol buffer were used instead of glycine buffer, since glycine buffer
interfered the photometry at pH 9-10.
^b Km values were measured at 7.0 in Trismaleate buffer, purified
human submaxillary enzyme being used. The values are the mean of duplicat
(§2) ^c Activities were measured at pH 7.0 in 0.15 M Trismaleate buffer or
(§3) at pH 8.7 in 0.15 M glycineNaOH buffer. The values are the mean of
^d The purified enzyme was obtained by the following method; The
enzyme was solubilized from the microsomal fraction by autodigestion, and
subsequently purified by (NH4)2 SO4 fractionation followed
by Sephadex G200 chromatography.

[2] = molecular target: T1, X-prolyl dipeptidyl-aminopeptidase in human serum (Homo sapiens, UniProt P27487); experiment: Direct photometric assay of substrate hydrolysis (p-nitroaniline liberated, 385 nm) with human serum as enzyme source; assay type: biochemical; conditions: for Enzyme activity (μmole/min/1 serum ± S.E.): 3 cases; for Amount of p-nitroaniline formed: 37° C., pH 8.7, 0.05 ml human serum; for Enzyme activity average ± S. E.: normal human sera
T1 construct: Even if crude enzyme such as human serum is used as enzyme source, the activity is accurately measured; from tissue; host or cells: human serum (normal subjects and patients)
T1 sequence (P27487 39-766 limits assumed): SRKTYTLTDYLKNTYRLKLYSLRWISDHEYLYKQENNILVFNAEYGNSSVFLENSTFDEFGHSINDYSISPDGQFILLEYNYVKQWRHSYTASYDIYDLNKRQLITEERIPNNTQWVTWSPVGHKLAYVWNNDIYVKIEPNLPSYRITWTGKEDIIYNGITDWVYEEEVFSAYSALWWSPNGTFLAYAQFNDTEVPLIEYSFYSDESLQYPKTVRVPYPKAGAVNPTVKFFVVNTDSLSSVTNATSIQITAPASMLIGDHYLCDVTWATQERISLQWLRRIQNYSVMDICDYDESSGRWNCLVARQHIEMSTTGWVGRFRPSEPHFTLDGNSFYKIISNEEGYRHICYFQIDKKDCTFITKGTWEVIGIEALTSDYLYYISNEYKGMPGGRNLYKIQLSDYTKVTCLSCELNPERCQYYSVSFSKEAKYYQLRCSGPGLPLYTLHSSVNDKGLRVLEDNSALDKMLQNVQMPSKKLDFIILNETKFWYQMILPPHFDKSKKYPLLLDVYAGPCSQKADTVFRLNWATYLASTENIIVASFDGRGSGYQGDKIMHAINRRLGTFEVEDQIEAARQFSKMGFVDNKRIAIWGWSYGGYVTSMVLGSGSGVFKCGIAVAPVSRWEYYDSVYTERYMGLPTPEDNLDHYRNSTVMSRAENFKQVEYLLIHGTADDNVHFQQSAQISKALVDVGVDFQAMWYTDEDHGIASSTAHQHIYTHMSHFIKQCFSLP
Description: The relation between the incubation time and the amount of substrate hydrolyzed was examined, glycyl-L-proline p-nitroanilide and human serum being used as substrate and enzyme source, respectively, and the assay of the substrate hydrolyzed was carried out by the following direct photometric method.
Glycyl-L-proline p-nitroanilide tosylate was dissolved in 2% non-ionic detergent (Nikkol NP-10; Nikko Chemicals, Osaka, Japan) aqueous solution in a concentration of 3 mM to prepare the substrate solution. The following four tubes were prepared:
(1) the experimental tube contained 0.5 ml of 0.15 M glycine-NaOH buffer (pH 8.7), 0.5 ml of the substrate solution, and 0.05 ml of human serum
(2) the blank tube contained 0.5 ml of the 0.15 M glycine-NaOH buffer, 0.5 ml of the substrate solution and 0.05 ml of water.
(3) the standard tube contained 0.5 ml of the buffer, 0.5 ml of the substrate and 0.05 ml of 3 mM p-nitroaniline aqueous solution.
(4) the control tube contained 0.5 ml of the buffer and 0.5 ml of the substrate.
All tubes were incubated at 37° C. for the periods listed in Table 1, and the reaction was stopped by the addition of 3.0 ml of 1M acetate buffer (pH 4.2) to every tube. To the control tube, 0.05 ml of the human serum was added after stopping the reaction. A photometer was adjusted to zero with the blank, and the absorbances of the experimental (E), control (C), and standard (S) were read at 385 nm in a cuvette with 1 cm light path. p-Nitroaniline liberated by the enzyme reaction was calculated by the equation [formula]
as §1, §2, §3
The activity of X-prolyl dipeptidyl-aminopeptidase was measured as in Example 22, glycyl-L-proline p-nitroanilide and 88 normal human sera being used as substrate and enzyme, respectively.
The activity of X-prolyl dipeptidyl-aminopeptidase was measured as in Example 22, glycyl-L-proline p-nitroanilide and human sera from patients being used as substrate and enzyme sources, respectively.
The activity of X-prolyl dipeptidyl-aminopeptidase was measured as in Example 22, various X-L-prolyl p-nitroanilides, and human sera from patients being used as substrates and enzyme sources, respectively.

[3] = Stability of aqueous substrate solution; assay type: physicochemical; conditions: at the optimum pH, 4° C.
Description: The enzyme activity is measured without difficulty by using the dipeptide derivatives or salts thereof as substrates. An aqueous solution of X-L-proline-Y or salt thereof having a suitable concentration is first prepared. Since it requires a fairly long time to dissolve the substrate in water, it is preferred to use suitable substances capable of increasing the dissolution rate such as non-ionic detergents, acids and alcohols, or to use the substrate in the porous form which may be prepared by freeze-drying or the like. The porous substrate is most convenient for routine use for assay of the enzyme. The optimum pH of the substrate solution varies depending on the kind of substrate employed, but is easily determined by experiments. The optimum pH is usually in the range of from 6 to 9, preferably of from 7.5 to 8.9.

[4] = molecular target: T1, X-prolyl dipeptidyl-aminopeptidase in human serum; experiment: Hydrolysis of phenylazo substrates by human serum, photometry at 493 nm / 532 nm; assay type: biochemical
Description: 3 mM of substrate solutions were prepared as in Example 22, glycyl-L-proline p-phenylazoanilide tosylate and glycyl-L-proline 4-phenylazo-1-naphthylamide being used as substrates.
The assay of enzyme activity was carried out by adding 0.05 ml of human serum to a mixture of 0.5 ml […] glycine-NaOH buffer (pH 8.7) and 0.5 ml substrate solution in the experimental tube, incubating the resulting solution at 37° C. for 30 minutes, and then stopping the reaction with 3.0 ml 1N-hydrochloric acid. The absorbances were A 493 nm=0.18 for glycyl-L-proline p-phenylazoanilide and A 532 nm=0.80 for glycyl-L-proline 4-phenylazo-1-naphthylamide.
The rate of hydrolysis of glycyl-L-proline p-phenylazoanilide was measured as in Example 26, human serum being used as enzyme. However, the blank tube contained water instead of the enzyme solution in the experimental tube, and the standard tube contained 3 mM p-phenylazo-aniline solution instead of the enzyme solution in the experimental tube.

[5] = 0.05 ml human serum, pH 8.7, 37° C., 30 minutes

Compound: NCC(=O)N1CCC[C@H]1C(=O)O [Glycyl-L-proline] (H-Gly-Pro-OH)
products identified by paper chromatography / hydrolysis by human serum (human serum): hydrolyzed to glycine and L-proline

Optimum pH ([1]; Tris-maleate, glycine-NaOH or amidiol buffer): 8.5-8.7
Relative enzyme activity (%) Purified human submaxillary enzyme pH 7.0 ([1]; pH 7.0, 0.15 M Tris-maleate buffer, glycyl-L-proline p-nitroanilide = 100): 100%
Km ([1]; pH 7.0, Tris-maleate buffer, mean of duplicate experiments): 330 µM
Enzyme activity ([2]; human sera from patients, Acute lymphocytic leukemia, 22 cases): 38.8 ± 11.9 μmole/min/1 serum
Enzyme activity ([2]; human sera from patients, Early essential hypertension, 20 cases): 80.94 ± 3.87 μmole/min/1 serum
Enzyme activity ([2]; human sera from patients, Fixed essential hypertension, 17 cases): 89.29 ± 3.69 μmole/min/1 serum
Enzyme activity (μmole/min/1 serum ± S.E.) ([2]; human sera from patients, Gastric Cancer): 25.3 ± 3.0 μmole/min/1 serum
Enzyme activity ([2]; human sera from patients, Gastric Cancer, 37 cases): 38.4 ± 2.3 μmole/min/1 serum
Enzyme activity (μmole/min/1 serum ± S.E.) ([2]; human sera from patients, Hepatitis): 143.0 ± 31.8 μmole/min/1 serum
Enzyme activity ([2]; human sera from patients, Hepatitis, 23 cases): 75.8 ± 28.5 μmole/min/1 serum
Enzyme activity ([2]; human sera from patients, Hodgkin's disease, 15 cases): 31.0 ± 9.5 μmole/min/1 serum
Enzyme activity ([2]; human sera from patients, Lymphosarcoma, 11 cases): 36.3 ± 5.6 μmole/min/1 serum
Enzyme activity ([2]; human sera from patients, Pulmonary Cancer, 17 cases): 39.8 ± 2.6 μmole/min/1 serum
Enzyme activity (μmole/min/1 serum ± S.E.) ([2]; human sera, Normal (control)): 50.4 ± 15.0 μmole/min/1 serum
Enzyme activity ([2]; human sera, Normal (control), 88 cases): 54.9 ± 1.5 μmole/min/1 serum
Relative enzyme activity (%) Human serum pH 7.0 ([2]; human serum, pH 7.0, 0.15 M Tris-maleate buffer, glycyl-L-proline p-nitroanilide = 100): 100%
Relative enzyme activity (%) Human serum pH 8.7 ([2]; human serum, pH 8.7, 0.15 M glycine-NaOH buffer, glycyl-L-proline p-nitroanilide = 100): 100%
Amount of p-nitroaniline formed ([2]; incubation time 15 min): 18.11 n mole
Amount of p-nitroaniline formed ([2]; incubation time 30 min): 35.43 n mole
Amount of p-nitroaniline formed ([2]; incubation time 60 min): 71.65 n mole
Amount of p-nitroaniline formed ([2]; incubation time 90 min): 100.79 n mole
Amount of p-nitroaniline formed ([2]; incubation time 120 min): 135.43 n mole
Enzyme activity average ± S. E. ([2]; Older Female, 17 subjects, 48-76 years): 58.16 ± 4.37 μ mole/min/1 serum
Enzyme activity average ± S. E. ([2]; Older Male, 29 subjects, 41-81 years): 53.18 ± 2.43 μ mole/min/1 serum
Enzyme activity average ± S. E. ([2]; Older, 46 subjects, 41-81 years): 55.04 ± 2.23 μ mole/min/1 serum
Enzyme activity average ± S. E. ([2]; Total Female, 35 subjects, 20-76 years): 52.49 ± 2.47 μ mole/min/1 serum
Enzyme activity average ± S. E. ([2]; Total Male, 53 subjects, 15-81 years): 56.30 ± 1.90 μ mole/min/1 serum
Enzyme activity average ± S. E. ([2]; Total, 88 subjects, 15-81 years): 54.88 ± 1.50 μ mole/min/1 serum
Enzyme activity average ± S. E. ([2]; Younger Female, 18 subjects, 20-40 years): 47.59 ± 2.07 μ mole/min/1 serum
Enzyme activity average ± S. E. ([2]; Younger Male, 24 subjects, 15-40 years): 60.10 ± 2.84 μ mole/min/1 serum
Enzyme activity average ± S. E. ([2]; Younger, 42 subjects, 15-40 years): 54.76 ± 2.07 μ mole/min/1 serum
storage of substrate solution without appreciable degradation [3]: more than a week
Compound: NCC(=O)N1CCC[C@H]1C(=O)Nc1ccc([N+](=O)[O-])cc1 [glycyl-L-proline p-nitroanilide, Glycyl-L-proline p-nitroanilide] (H-Gly-Pro-pNA)
products identified by paper chromatography / hydrolysis by human serum (human serum): glycyl-L-proline, glycine, L-proline and p-nitroaniline were identified

Compound: Cc1ccc(S(=O)(=O)O)cc1.NCC(=O)N1CCC[C@H]1C(=O)Nc1ccc(N=Nc2ccccc2)cc1 [glycyl-L-proline p-phenylazoanilide, Glycyl-L-proline p-phenylazoanilide tosylate]
absorbance A 493 nm [4, 5]: 0.18
rate of hydrolysis ([4]; human serum as enzyme, as in Example 26): 18.7 n mole/min./l serum

absorbance A 532 nm [4, 5]: 0.80
Compound: NCC(=O)N1CCC[C@H]1C(=O)Nc1ccc(N=Nc2ccccc2)c2ccccc12 [Glycyl-L-proline 4-phenylazo-1-naphthyl amide]
